Patent publication US20040259926A1, “3-Aryloxy and 3-heteroaryloxy substituted benzo[b]thiophenes as therapeutic agents” (priority 2003, published 2004)

biological target: T1, PI3Kγ (recombinant p101/p110γ protein) (Homo sapiens, UniProt P48736); test: PI3Kγ In Vitro Kinase Assay; assay type: biochemical; conditions: purified recombinant p101/p110γ with G protein β1/γ2 subunits; 20 μM ATP, [γ-32P-ATP]; 25 μM PIP2 lipid micelles; 20 minutes at room temperature
T1 construct: HA; made in house; host or cells: Spodoptera frugiperda (Sf9) cells, baculovirus co-infection
How it was run: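 Baculovirus/Sf9-expressed p101/p110γ (~2.7 nM) with Gβ1/γ2 (~57.7 nM) in HEPES/NaCl/EGTA/DTT buffer; 20 μM ATP plus [γ-32P]ATP, micelles of 25 μM PIP2, 300 μM PE, 10 mM MgCl2. Reactions ran 20 minutes at room temperature; radiolabelled PIP3 captured on glass-fibre filters and counted for IC50.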

T1 sequence (P48736 whole entry, species assumed): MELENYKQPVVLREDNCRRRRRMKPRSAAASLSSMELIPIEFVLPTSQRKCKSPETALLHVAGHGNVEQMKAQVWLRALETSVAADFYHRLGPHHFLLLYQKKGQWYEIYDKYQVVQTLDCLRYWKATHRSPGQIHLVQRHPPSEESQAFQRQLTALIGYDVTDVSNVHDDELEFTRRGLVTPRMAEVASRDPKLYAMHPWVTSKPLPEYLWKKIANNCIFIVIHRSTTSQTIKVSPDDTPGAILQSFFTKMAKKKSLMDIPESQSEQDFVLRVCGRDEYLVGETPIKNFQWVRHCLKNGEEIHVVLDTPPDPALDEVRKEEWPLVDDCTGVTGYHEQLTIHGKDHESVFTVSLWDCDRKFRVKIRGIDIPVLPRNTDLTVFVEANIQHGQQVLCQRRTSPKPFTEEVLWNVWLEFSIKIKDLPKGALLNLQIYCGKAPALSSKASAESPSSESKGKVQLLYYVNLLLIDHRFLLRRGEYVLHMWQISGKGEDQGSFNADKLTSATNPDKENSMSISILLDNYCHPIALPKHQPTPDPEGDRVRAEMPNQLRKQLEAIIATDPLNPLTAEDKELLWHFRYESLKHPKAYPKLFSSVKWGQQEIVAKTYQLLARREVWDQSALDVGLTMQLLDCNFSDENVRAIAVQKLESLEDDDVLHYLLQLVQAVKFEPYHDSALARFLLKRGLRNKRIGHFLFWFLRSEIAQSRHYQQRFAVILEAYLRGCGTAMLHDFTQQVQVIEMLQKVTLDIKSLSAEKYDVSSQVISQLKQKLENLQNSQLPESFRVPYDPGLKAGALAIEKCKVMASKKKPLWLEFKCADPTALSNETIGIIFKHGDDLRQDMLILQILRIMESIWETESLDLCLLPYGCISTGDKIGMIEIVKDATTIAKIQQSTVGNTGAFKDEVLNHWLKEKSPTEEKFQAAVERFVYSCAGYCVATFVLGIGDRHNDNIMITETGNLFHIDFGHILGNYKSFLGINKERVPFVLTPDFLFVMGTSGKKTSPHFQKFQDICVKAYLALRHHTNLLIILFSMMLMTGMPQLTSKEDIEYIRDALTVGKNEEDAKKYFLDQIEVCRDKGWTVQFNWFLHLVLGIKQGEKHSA
T1 sequence (Q8WYR1 whole entry partner, species assumed): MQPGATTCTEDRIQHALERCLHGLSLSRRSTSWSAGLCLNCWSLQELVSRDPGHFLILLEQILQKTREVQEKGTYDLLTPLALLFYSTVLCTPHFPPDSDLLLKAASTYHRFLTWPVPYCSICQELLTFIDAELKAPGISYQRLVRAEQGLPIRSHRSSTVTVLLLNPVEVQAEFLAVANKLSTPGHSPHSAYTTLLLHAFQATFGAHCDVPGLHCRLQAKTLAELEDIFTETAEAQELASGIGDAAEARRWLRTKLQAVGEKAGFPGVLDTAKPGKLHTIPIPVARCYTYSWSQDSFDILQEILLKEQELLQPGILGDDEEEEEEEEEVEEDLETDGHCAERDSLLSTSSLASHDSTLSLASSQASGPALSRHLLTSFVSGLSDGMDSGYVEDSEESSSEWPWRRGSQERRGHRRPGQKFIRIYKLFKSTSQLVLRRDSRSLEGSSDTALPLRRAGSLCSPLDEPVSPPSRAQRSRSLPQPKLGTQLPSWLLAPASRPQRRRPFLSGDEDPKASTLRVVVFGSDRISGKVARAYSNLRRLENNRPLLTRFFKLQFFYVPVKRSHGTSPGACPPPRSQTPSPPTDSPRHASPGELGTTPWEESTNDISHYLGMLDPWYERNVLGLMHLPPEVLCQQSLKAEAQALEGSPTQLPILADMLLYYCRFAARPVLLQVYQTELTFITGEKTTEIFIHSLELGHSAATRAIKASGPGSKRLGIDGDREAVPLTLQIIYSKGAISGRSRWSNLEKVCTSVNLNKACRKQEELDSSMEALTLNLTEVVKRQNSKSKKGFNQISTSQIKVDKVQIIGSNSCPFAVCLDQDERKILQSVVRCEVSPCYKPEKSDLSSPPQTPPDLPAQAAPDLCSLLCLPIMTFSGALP

Row | IC50 [nM] | Compound
1 | 8 | COc1cc2c(Oc3ccc(C4CCC5(CC4)OCCO5)cc3)c(C(=O)Nc3nn[nH]n3)sc2cc1C [Example B.68, 3-[4-(1,4-Dioxa-spiro[4.5]dec-8-yl)-phenoxy]-5-methoxy-6-methyl-benzo[b]thiophene-2-carboxylic acid (2H-tetrazol-5-yl)-amide]
2 | 4 | COc1cc2c(Oc3ccc(C4CCS(=O)(=O)CC4)cc3)c(C(=O)Nc3nn[nH]n3)sc2cc1C [Example B.69, 3-[4-(1,1-Dioxo-hexahydro-1λ^6-thiopyran-4-yl)-phenoxy]-5-methoxy-6-methyl-benzo[b]thiophene-2-carboxylic acid (2H-tetrazol-5-yl)-amide]
3 | 17 | COc1cc2c(Oc3ccc(C4CCCCC4)cc3[N+](=O)[O-])c(C(=O)Nc3nn[nH]n3)sc2cc1C [Example B.70, 5-Methoxy-6-methyl-3-(2-nitro-4-cyclohexyl-phenoxy)-benzo[b]thiophene-2-carboxylic acid (2H-tetrazol-5-yl)-amide]
4 | 275 | COc1cc2c(Oc3ccc(C4CCCCC4)cc3N)c(C(=O)Nc3nn[nH]n3)sc2cc1C [Example B.71, 3-(2-Amino-4-cyclohexyl-phenoxy)-5-methoxy-6-methyl-benzo[b]thiophene-2-carboxylic acid (2H-tetrazol-5-yl)-amide]
5 | 160 | COc1cc2c(Oc3ccc(C4CCCCC4)cc3OC)c(C(=O)Nc3nn[nH]n3)sc2cc1C [Example B.72, 3-(2-Methoxy-4-cyclohexyl-phenoxy)-5-methoxy-6-methyl-benzo[b]thiophene-2-carboxylic acid (2H-tetrazol-5-yl)-amide]
6 | 13 | COc1cc2c(Oc3ccc(C4CCCCC4)cc3Cl)c(C(=O)Nc3nn[nH]n3)sc2cc1C [Example B.73, 3-(2-Chloro-4-cyclohexyl-phenoxy)-5-methoxy-6-methyl-benzo[b]thiophene-2-carboxylic acid (2H-tetrazol-5-yl)-amide]
7 | 12 | COc1cc2c(Oc3ccc(C4CCCCC4)cc3Br)c(C(=O)Nc3nn[nH]n3)sc2cc1C [Example B.74, 3-(2-Bromo-4-cyclohexyl-phenoxy)-5-methoxy-6-methyl-benzo[b]thiophene-2-carboxylic acid (2H-tetrazol-5-yl)-amide]
8 | 6 | COc1cc2c(Oc3ccc(C4CCCCC4)cc3C#N)c(C(=O)Nc3nn[nH]n3)sc2cc1C [Example B.75, 3-(2-Cyano-4-cyclohexyl-phenoxy)-5-methoxy-6-methyl-benzo[b]thiophene-2-carboxylic acid (2H-tetrazol-5-yl)-amide]
9 | 185 | COc1cc2sc(C(=O)Nc3nnn[nH]3)c(OCCc3ccccc3)c2cc1OC [Example C.1, 5,6-Dimethoxy-3-phenethyloxy-benzo[b]thiophene-2-carboxylic acid (1H-tetrazol-5-yl)-amide]
10 | 346 | COc1cc2sc(C(=O)Nc3nnn[nH]3)c(OCc3cccc(Br)c3)c2cc1OC [Example C.2, 3-(3-Bromo-benzyloxy)-5,6-dimethoxy-benzo[b]thiophene-2-carboxylic acid (1H-tetrazol-5-yl)-amide]
11 | 3630 | COc1cc2sc(C(=O)Nc3nnn[nH]3)c(OCc3ccc(F)c(F)c3)c2cc1OC [Example C.3, 3-(3,4-Difluoro-benzyloxy)-5,6-dimethoxy-benzo[b]thiophene-2-carboxylic acid (1H-tetrazol-5-yl)-amide]
12 | 2650 | COc1cc2sc(C(=O)Nc3nnn[nH]3)c(OCc3ccc(-c4ccccc4)cc3)c2cc1OC [Example C.4, 3-(Biphenyl-4-ylmethoxy)-5,6-dimethoxy-benzo[b]thiophene-2-carboxylic acid (1H-tetrazol-5-yl)-amide]
13 | 1620 | COc1cc2sc(C(=O)Nc3nnn[nH]3)c(OCc3cccc(C(F)(F)F)c3)c2cc1OC [Example C.5, 5,6-Dimethoxy-3-(3-trifluoromethyl-benzyloxy)-benzo[b]thiophene-2-carboxylic acid (1H-tetrazol-5-yl)-amide]

The next lines start with the compound.

Row | Compound | IC50 [nM]
14 | COc1cc2c(Oc3ccc(S(C)(=O)=O)cc3)c(C(=O)Nc3nn[nH]n3)sc2cc1C [Example B.47, 3-(4-Methanesulfonyl-phenoxy)-5-methoxy-6-methyl-benzo[b]thiophene-2-carboxylic acid (2H-tetrazol-5-yl)-amide] | 58
15 | COc1cc2c(Oc3ccc(C4CCC(C)C4)cc3)c(C(=O)Nc3nn[nH]n3)sc2cc1C (stereo not drawn) [Example B.49, 5-Methoxy-6-methyl-3-[4-(3-methyl-cyclopentyl)-phenoxy]-benzo[b]thiophene-2-carboxylic acid (2H-tetrazol-5-yl)-amide] | 71
16 | COc1cc2c(Oc3ccc(OC4CCC(C)C4)cc3)c(C(=O)Nc3nn[nH]n3)sc2cc1C (stereo not drawn) [Example B.50, 5-Methoxy-6-methyl-3-[4-(3-methyl-cyclopentyloxy)-phenoxy]-benzo[b]thiophene-2-carboxylic acid (2H-tetrazol-5-yl)-amide] | 51
17 | COc1cc2c(Oc3ccc(Cl)cc3)c(C(=O)Nc3nn[nH]n3)sc2cc1C [Example B.51, 3-(4-Chloro-phenoxy)-5-Methoxy-6-methyl-benzo[b]thiophene-2-carboxylic acid (2H-tetrazol-5-yl)-amide] | 61
18 | CCCCC1CCCC(c2ccc(Oc3c(C(=O)Nc4nn[nH]n4)sc4cc(C)c(OC)cc34)cc2)C1 (stereo not drawn) [Example B.52, 3-[4-(3-Butyl-cyclohexyl)-phenoxy]-5-methoxy-6-methyl-benzo[b]thiophene-2-carboxylic acid (2H-tetrazol-5-yl)-amide] | 1310
19 | COc1cc2c(Oc3ccc(C4CCC(C)(C)CC4)cc3)c(C(=O)Nc3nn[nH]n3)sc2cc1C [Example B.55, 3-[4-(4,4-Dimethyl-cyclohexyl)-phenoxy]-5-methoxy-6-methyl-benzo[b]thiophene-2-carboxylic acid (2H-tetrazol-5yl)-amide] | 102
20 | COc1cc2c(Oc3ccc(C4CCCCCC4)cc3)c(C(=O)Nc3nn[nH]n3)sc2cc1C [Example B.57, 3-(4-cycloheptyl-phenoxy)-5-methoxy-6-methyl-benzo[b]thiophene-2-carboxylic acid (2H-tetrazol-5-yl)amide] | 40
21 | COc1cc2c(Oc3ccc(C4CCCC4)cc3)c(C(=O)Nc3nn[nH]n3)sc2cc1C [Example B.58, 3-(4-cyclopentyl-phenoxy)-5-methoxy-6-methyl-benzo[b]thiophene-2-carboxylic acid (2H-tetrazol-5-yl)amide] | 35
22 | COCC1(c2ccc(Oc3c(C(=O)Nc4nn[nH]n4)sc4cc(C)c(OC)cc34)cc2)CCCC1 [Example B.59, 5-Methoxy-3-[4-(1-methoxymethyl-cyclopentyl)-phenoxy]-6-methyl-benzo[b]thiophene-2-carboxylic acid (2H-tetrazol-5-yl)-amide] | 25
23 | COc1cc2c(Oc3ccc(C4CCC(=O)CC4)cc3)c(C(=O)Nc3nn[nH]n3)sc2cc1C [Example B.60, 5-Methoxy-6-methyl-3-[4-(4-oxo-cyclohexyl)-phenoxy]-benzo[b]thiophene-2-carboxylic acid (2H-tetrazol-5-yl)-amide] | 22
24 | COc1cc2c(Oc3ccc(C4(C(N)=O)CCCC4)cc3)c(C(=O)Nc3nn[nH]n3)sc2cc1C [Example B.64, 3-[4-(1-carbamoyl-cyclopentyl)-phenoxy]-5-methoxy-6-methyl-benzo[b]thiophene-2-carboxylic acid (2H-tetrazol-5-yl)-amide] | 9
